{
  "source": "paper PMC7167990",
  "about": "“Therapeutic Effects of Atranorin towards the Proliferation of Babesia and Theileria Parasites” (Pathogens, 2020)",
  "key": {"B. bovis": {"system": "B. bovis", "test": "In vitro growth inhibition, Babesia fluorescent (SYBR Green I) assay", "format": "cell-based", "details": "4 days culture, mean of triplicate experiments", "method": "(§1) Babesia parasite was incubated and maintained at 37 °C in a humidifying chamber under 5% CO2, 5% O2, and 90% N2 atmosphere using a microaerophilic stationary-phase culture for conducting the in vitro experiment. Briefly, Germany strain Babesia divergens was cultured in cattle RBCs in Roswell Park Memorial Institute 1640 (RPMI 1640; Sigma-Aldrich, St. Louis, MO, USA) medium replenished with 40% cattle serum, while culture medium 199 (M199; Sigma-Aldrich) was utilized for the Argentina strain B. bigemina and Texas strain B. bovis, and T. equi USDA strain cultured in cattle RBCs supplemented with 40% cattle serum and horse RBCs maintained in hypoxanthine (MP Biomedicals, Santa Ana, CA, USA; final concentration 13.6 μg/mL) and 40% horse serum, respectively. GIT medium complemented with 40% horse serum was used as a growth medium for the USDA strain of B. caballi cultured in horse RBCs. To ensure free-bacterial contamination, amphotericin B (0.15 μg/mL) (Sigma-Aldrich), streptomycin (60 U/mL) and penicillin G (60 U/mL) were added to all medium.\n(§2) The Babesia fluorescent assay was carried out on the in vitro culture as previously reported elsewhere to assess the growth of the inhibitory effectiveness of ATR and the combination treatment with DA, CF, and AV. Briefly, in three separate trials, using two-fold dilution, different concentrations of ATR, DA, CF, and AV were prepared in the culture medium and added in 96-well plates in triplicate with 1% parasitemia for T. equi, B. divergens and B. caballi at 5% HCT, while for B. bigemina and B. bovis using 2.5% HCT. The drug combined efficacy was conducted at the same time with the single-treatment assay in accordance with the Chou–Talalay method. […] On day four of culture, an aliquot (100 µL) of lysis buffer mixed with 0.2μL/mL SG1 was added per well; subsequently, it was covered with aluminum foil to prevent exposure to light. After incubation for 6-h at 37 °C, fluorescence readings were acquired on a spectrofluorimeter (Fluoroskan Ascent, Thermo Fisher Scientific, Oceanside, CA, USA) with a 485 nm excitation wavelength and a 518 nm emission wavelength.\n(§3) The IC50 values of ATR, DA, CF, and AV were established from the in vitro growth inhibition by nonlinear regression curve fit on a GraphPad Prism (GraphPad Software Inc., San Diego, CA, USA). […] The significant variations (p < 0.05) among group mean values on parasitemia and one-way ANOVA Tukey’s test in GraphPad Prism version 5.0 was used to analyze hematology profiles in mice infected with B. microti."}, "B. divergens": {"system": "B. divergens", "test": "In vitro growth inhibition, Babesia fluorescent (SYBR Green I) assay", "format": "cell-based", "details": "4 days culture, mean of triplicate experiments", "method": "as §1, §2, §3"}, "T. equi": {"system": "T. equi", "test": "In vitro growth inhibition, Babesia fluorescent (SYBR Green I) assay", "format": "cell-based", "details": "4 days culture, mean of triplicate experiments", "method": "as §1, §2, §3"}, "B. caballi": {"system": "B. caballi", "test": "In vitro growth inhibition, Babesia fluorescent (SYBR Green I) assay", "format": "cell-based", "details": "4 days culture, mean of triplicate experiments", "method": "as §1, §2, §3"}, "B. bigemina": {"system": "B. bigemina", "test": "In vitro growth inhibition, Babesia fluorescent (SYBR Green I) assay", "format": "cell-based", "details": "4 days culture, mean of triplicate experiments", "method": "as §1, §2, §3"}, "HFFs": {"system": "HFFs", "test": "Cytotoxicity assay (CCK-8 cell viability)", "format": "cell-based, human", "method": "(§4) Cultures of human foreskin fibroblast (HFF; HFF-1 ATCC® SCRC-1041™), Madin–Darby bovine kidney (MDBK; ECACC) and mouse embryonic fibroblast (NIH/3T3; ATCC® CRL-1658™) cells were retrieved from −80 °C stock and cultured continuously at 37 °C under atmosphere 5% CO2 in our laboratory. The NIH/3T3 and HFFs cells were maintained in Dulbecco Modified Eagle’s Medium (DMEM; Gibco, Grand Island, NY, USA), while MDBK cell line grown in Minimum Essential Medium Eagle (MEM; Gibco). Each medium was treated with 0.5% penicillin/streptomycin (Gibco), 10% inactivated fetal bovine serum and 2 mM glutamine. Every 72 to 96 h, the medium was replaced, and once 80% confluence was reached, the cell collection was performed by sub-culture protocol. To confirm the absence of mycoplasma contamination, 4,6-diamidino-2-phenylindole dihydrochloride stain (Sigma-Aldrich) was used.\n(§5) The cell viability test was conducted in a 96-well plate as described elsewhere. Briefly, an aliquot of (100 µL) cells was implanted at a concentration of 5 × 10^4 cells/mL in DMEM or MEM with fetal bovine serum and incubated overnight under atmosphere 5% CO2 at 37 °C for attachment. Using two-fold dilutions, aliquots (10 µL) of drugs were added in triplicate per well to attain final concentrations of 50 to 1000 µM and further incubated for 24 h. The positive control wells containing cells mixed with the medium in 0.4% DMSO, whereas the negative control wells containing culture medium only. After a 24-h incubation, Cell Counting Kits-8 (CCK-8, 10 µL) was added to each well and then plate incubation was conducted for an additional 3 h and a microplate reader was used to assess the absorbance at 450 nm."}, "B. microti": {"system": "B. microti", "details": "B. microti-infected BALB/c mice, days 4-8 p.i."}, "NIH/3T3 cells": {"system": "NIH/3T3 cells", "test": "Cytotoxicity assay (CCK-8 cell viability)", "format": "cell-based, mouse", "method": "as §4, §5"}, "[1]": {"test": "Hematology parameters (HGB, HCT, RBCs) in B. microti-infected treated mice", "format": "in vivo, BALB/c mice", "design": "HGB Mean: unit not given beside the values; RBCs Mean: unit not given here", "details": "DA 25, AV 20, ATR 25, ATR 12.5+DA 12.5, ATR 12.5+AV 10 mg/kg BW, days 4-8 p.i."}},
  "data": [
    {"smiles": "CC(=O)NCC(=O)O.CC(=O)NCC(=O)O.N=C(N)c1ccc(N=NNc2ccc(C(=N)N)cc2)cc1", "note": "[DA, diminazene aceturate]", "values": [
      {"measurement": "IC50", "setting": "B. bovis", "value": "350 ± 60", "unit": "nM"},
      {"measurement": "IC50", "setting": "B. divergens", "value": "430 ± 50", "unit": "nM"},
      {"measurement": "IC50", "setting": "T. equi", "value": "710 ± 50", "unit": "nM"},
      {"measurement": "IC50", "setting": "B. caballi", "value": 20, "unit": "nM"},
      {"measurement": "IC50", "setting": "B. bigemina", "value": "680 ± 90", "unit": "nM"},
      {"measurement": "Selective Index HFFs", "setting": "HFFs; EC50 HFFs / IC50 B. bigemina", "value": "˃147.1"},
      {"measurement": "Selective Index HFFs", "setting": "HFFs; EC50 HFFs / IC50 B. bovis", "value": "˃285.7"},
      {"measurement": "Selective Index HFFs", "setting": "HFFs; EC50 HFFs / IC50 B. caballi", "value": "˃5000"},
      {"measurement": "Selective Index HFFs", "setting": "HFFs; EC50 HFFs / IC50 B. divergens", "value": "˃232.5"},
      {"measurement": "Selective Index HFFs", "setting": "HFFs; EC50 HFFs / IC50 T. equi", "value": "˃140.8"},
      {"measurement": "EC50", "setting": "HFFs; HFFs, 24 h, CCK-8", "value": "> 100000", "unit": "nM"},
      {"measurement": "first day on which parasitemia was not detected by microscopy", "setting": "B. microti; DA 25, AV 20, ATR 25, ATR 12.5+DA 12.5, ATR 12.5+AV 10 mg/kg BW", "value": 16, "unit": "day p.i."},
      {"measurement": "peak parasitemia level", "setting": "B. microti; DA at 25 mg/kg, peak on day 10", "value": 7.94, "unit": "%"},
      {"measurement": "Selective Index NIH/3T3", "setting": "NIH/3T3 cells; EC50 NIH/3T3 / IC50 B. bigemina", "value": "˃147.1"},
      {"measurement": "Selective Index NIH/3T3", "setting": "NIH/3T3 cells; EC50 NIH/3T3 / IC50 B. bovis", "value": "˃285.7"},
      {"measurement": "Selective Index NIH/3T3", "setting": "NIH/3T3 cells; EC50 NIH/3T3 / IC50 B. caballi", "value": "˃5000"},
      {"measurement": "Selective Index NIH/3T3", "setting": "NIH/3T3 cells; EC50 NIH/3T3 / IC50 B. divergens", "value": "˃232.5"},
      {"measurement": "Selective Index NIH/3T3", "setting": "NIH/3T3 cells; EC50 NIH/3T3 / IC50 T. equi", "value": "˃140.8"},
      {"measurement": "EC50", "setting": "NIH/3T3 cells; NIH/3T3 cells, 24 h, CCK-8, read-out: EC50 NIH/3T3", "value": "> 100000", "unit": "nM"},
      {"measurement": "HCT Mean", "setting": "[1]; day 0", "value": 46.48, "unit": "%"},
      {"measurement": "HGB Mean", "setting": "[1]; day 0", "value": 15.64},
      {"measurement": "RBCs Mean", "setting": "[1]; day 0", "value": 990.625},
      {"measurement": "HCT Mean", "setting": "[1]; day 4", "value": 46.18, "unit": "%"},
      {"measurement": "HGB Mean", "setting": "[1]; day 4", "value": 13.64},
      {"measurement": "RBCs Mean", "setting": "[1]; day 4", "value": 954.75},
      {"measurement": "HCT Mean", "setting": "[1]; day 8", "value": 46.18, "unit": "%"},
      {"measurement": "HGB Mean", "setting": "[1]; day 8", "value": 14.72},
      {"measurement": "RBCs Mean", "setting": "[1]; day 8", "value": 888.25},
      {"measurement": "HCT Mean", "setting": "[1]; day 12", "value": 44.1, "unit": "%"},
      {"measurement": "HGB Mean", "setting": "[1]; day 12", "value": 13.6},
      {"measurement": "RBCs Mean", "setting": "[1]; day 12", "value": 860},
      {"measurement": "HCT Mean", "setting": "[1]; day 16", "value": 45.52, "unit": "%"},
      {"measurement": "HGB Mean", "setting": "[1]; day 16", "value": 14.46},
      {"measurement": "RBCs Mean", "setting": "[1]; day 16", "value": 870.25},
      {"measurement": "HCT Mean", "setting": "[1]; day 20", "value": 44.14, "unit": "%"},
      {"measurement": "HGB Mean", "setting": "[1]; day 20", "value": 15.02},
      {"measurement": "RBCs Mean", "setting": "[1]; day 20", "value": 880},
      {"measurement": "HCT Mean", "setting": "[1]; day 24", "value": 46, "unit": "%"},
      {"measurement": "HGB Mean", "setting": "[1]; day 24", "value": 15.2},
      {"measurement": "RBCs Mean", "setting": "[1]; day 24", "value": 888},
      {"measurement": "HCT Mean", "setting": "[1]; day 28", "value": 47, "unit": "%"},
      {"measurement": "HGB Mean", "setting": "[1]; day 28", "value": 15.64},
      {"measurement": "RBCs Mean", "setting": "[1]; day 28", "value": 984.75},
      {"measurement": "HCT Mean", "setting": "[1]; day 32", "value": 49, "unit": "%"},
      {"measurement": "HGB Mean", "setting": "[1]; day 32", "value": 15.94},
      {"measurement": "RBCs Mean", "setting": "[1]; day 32", "value": 990.625},
      {"measurement": "HCT Mean", "setting": "[1]; day 36", "value": 49, "unit": "%"},
      {"measurement": "HGB Mean", "setting": "[1]; day 36", "value": 16.64},
      {"measurement": "RBCs Mean", "setting": "[1]; day 36", "value": 997.625}
    ]}
  ]
}
